Values after ≈ are worked out from the molar mass of the structure shown.

A short description of this assay: Inhibition of PHA-induced human lymphocyte proliferation. The class given is functional, cell-based.
The compound `COc1c(O[C@@H]2O[C@@H](C)[C@H](O)[C@@H](OC(C)=O)[C@H]2O)cc2oc(-c3ccc(O)c(O)c3)c(O[C@@H]3O[C@@H](C)[C@H](O)[C@@H](O)[C@H]3O)c(=O)c2c1O` yielded a 50% inhibitory concentration (IC50) of 10 µg/mL (≈ 15 µM). `COc1c(O[C@@H]2O[C@@H](C)[C@H](O)[C@@H](OC(C)=O)[C@H]2O)cc2oc(-c3ccc(O)c(O)c3)c(O[C@@H]3O[C@@H](C)[C@H](OC(C)=O)[C@@H](O)[C@H]3O)c(=O)c2c1O` came in with a half-inhibitory concentration (IC50) of 0.25 µg/mL (≈ 0.353 µM). This IC50 is about 40-fold lower than that of the compound before. The value for `COc1c(O[C@@H]2O[C@@H](C)[C@H](O)[C@@H](O)[C@H]2OC(C)=O)cc2oc(-c3ccc(O)c(O)c3)c(O[C@@H]3O[C@@H](C)[C@H](OC(C)=O)[C@@H](O)[C@H]3O)c(=O)c2c1O` [KALAMBROSIDE A] was 0.5 µg/mL (≈ 0.706 µM). In the case of `COc1c(O[C@@H]2O[C@@H](C)[C@H](O)[C@@H](O)[C@H]2OC(C)=O)cc2oc(-c3ccc(O)c(O)c3)c(O[C@@H]3O[C@@H](C)[C@H](O)[C@@H](O)[C@H]3O)c(=O)c2c1O` [KALAMBROSIDE B], the concentration for half-maximal inhibition (IC50) stood at 1 µg/mL (≈ 1.5 µM). The compound `COc1c(O[C@@H]2O[C@@H](C)[C@H](O)[C@@H](O)[C@H]2O)cc2oc(-c3ccc(O)c(O)c3)c(O[C@@H]3O[C@@H](C)[C@H](OC(C)=O)[C@@H](O)[C@H]3O)c(=O)c2c1O` [KALAMBROSIDE C] registered a concentration for half-maximal inhibition (IC50) of over 10 µg/mL.

The values above are taken from ChEMBL document CHEMBL1148083, “Patuletin acetylrhamnosides from Kalanchoe brasiliensis as inhibitors of human lymphocyte proliferative activity” (J Nat Prod, 1994).
